Reference: patent publication US7557109B2, “Treatment for attention-deficit hyperactivity disorder” (priority 2001, dated 2009)

Assays:
[1] = tested on: DA and 5-HT release in dorsal striatum; assay: In vivo microdialysis of DA and 5-HT release in dorsal striatum, 1BKO mice; design: species or system 5-HT1B knock out mice; conditions: local administration
From the text: (§1) Wild-type and 5-HT1B knock out mice were implanted with microdialysis probes according to the methods of DeGroote et al., incorporated herein by reference, with the following modifications. (DeGroote et al., Eur. J. Pharmacol., 439:93-100, 2002). The dialysis probe was placed in the dorsal striatum, at coordinates AP +0.80, ML −1.7 mm from bregma, DV −4.0 mm from the dura, according to the stereotaxic atlas of the mouse brain (Franklin and Paxinos, 1997), and with the toothbar set at 0 mm. Microdialysis experiments were begun 16-20 hours after surgery, using previously described methods, which are incorporated herein by reference (DeGroote et al., 2002). After the start of the dialysis probe perfusion, mice were left undisturbed for three hours. Mice were tested in their home cage during the light period. Samples were collected every 20 minutes in vials containing 7.5 μl acetic acid and stored at −80° C. until HPLC analysis.
Release of DA and 5-HT was measured after peripheral administration of eltoprazine or intrastriatal administration of the selective 5-HT1B receptor agonist CP 93129 dihydrochloride (1,4-Dihydro-3-(1,2,3,6-tetrahydro-4-pyridinyl)-5H-pyrrolo[3,2-b]pyridin-5-one, obtained from Tocris, UK.) Drugs were dissolved in distilled water and further diluted in Ringer solution to the final concentration on the day of the experiment. 5-HT and DA were analyzed by HPLC with electrochemical detection. Samples (25 μl) were injected onto an Inertsil ODS-3 column (3 μM, 2.1×100 mm, Aurora Borealis, The Netherlands) using a Gilson pump and autosampler (Separations, The Netherlands). […] The signal was analyzed using Gynkotek software. […]
Values for the first four consecutive microdialysis samples were averaged to calculate the basal levels of extracellular 5-HT and DA, uncorrected for probe recovery. […] Effects of drug treatment were analyzed by a repeated multivariate analysis of variance (ANOVA) with time as ‘within’ and treatment (or dose) and genotype as ‘between’ factors.

[2] = tested on: DA and 5-HT release in dorsal striatum; assay: In vivo microdialysis of DA and 5-HT release in dorsal striatum, wild-type mice
From the text: as §1
Release of DA and 5-HT was measured after peripheral administration of eltoprazine or intrastriatal administration of the selective 5-HT1B receptor agonist CP 93129 dihydrochloride (1,4-Dihydro-3-(1,2,3,6-tetrahydro-4-pyridinyl)-5H-pyrrolo[3,2-b]pyridin-5-one, obtained from Tocris, UK.) Drugs were dissolved in distilled water and further diluted in Ringer solution to the final concentration on the day of the experiment. 5-HT and DA were analyzed by HPLC with electrochemical detection. Samples (25 μl) were injected onto an Inertsil ODS-3 column (3 μM, 2.1×100 mm, Aurora Borealis, The Netherlands) using a Gilson pump and autosampler (Separations, The Netherlands). Separation was performed at 40° C. with the electrochemical detector (Intro, ANTEC Leyden, The Netherlands) set at a potential of 600 mV against an Ag/AgCl reference electrode. The signal was analyzed using Gynkotek software. The mobile phase consisted of 5 g/l (NH4)2SO4, 150 mg/l heptane sulphonic acid sodium salt, 0.5 g/l EDTA, 5% methanol, 30 μl/l triethylamine, 30 μl/l acetic acid, pH 4.6. Flow rate was 0.3 ml/min. The detection limit for 5-HT was 0.5 fmol/25 μl sample (signal to noise ratio 2).
Values for the first four consecutive microdialysis samples were averaged to calculate the basal levels of extracellular 5-HT and DA, uncorrected for probe recovery. Student's t-tests were used to compare basal 5-HT and DA values between the two genotypes. Effects of drug treatment were analyzed by a repeated multivariate analysis of variance (ANOVA) with time as ‘within’ and treatment (or dose) and genotype as ‘between’ factors.

C3H mice = assay: Peak procedure (30 second reinforcement interval), C3H mice; assay type: in vivo; conditions: 0.3 to 3.0 mg/kg i.p. (FIG. 8)
Protocol: (§2) The peak procedure is a behavioral model designed to assess an animal's ability to learn an appropriate time period in which to perform a task and a time period in which the animal will be rewarded if the task is performed. The model provides information concerning excitatory and inhibitory components of behavior, as subjects must respond to perform a task when appropriate and stop responding in an “empty trial” when time for reward has elapsed and the reward has not been delivered. The task is sensitive to conditions where there is a failure in inhibitory mechanisms, such as seems to be the case for ADHD (Pliszka et al., Biol. Psychiatry, 48:238-46, 2000).
In the peak procedure, mice are trained to work for food that is delivered at the same time in each trial, but withdrawn in some unreinforced trials. Typically, the response rate increases up to a maximum around the reinforcement time, and then decreases to a low toward the end of the trial. The shape of the response rate indicates whether the animal is sensitive to the time of reinforcement. To be able to perform well in this model, the animals need to be able to learn several tasks. First, the animal must make an association between a response (lever pressing, nose poking or key pecking) and the delivery of reward. Second, the animal must be able to perceive and remember time. Third, the animal must act on its remembered time by starting and then stopping or inhibiting the response. Fourth, the animal must be able to compare the elapsed time in the trials with its remembered time to reinforcement. […] Accuracy is measured by looking at the shape of the response function; therefore, if the response function is sharper and centered on the reinforcement time it supports a conclusion that attentional processes have been heightened.
(§3) Mice were food deprived to 85-90% of their free-feeding body weight by supplementing food earned during experimental sessions with a measured amount after the session had ended. […]

[3] = tested on: coloboma (Cm) mutant mice; assay type: in vivo
From the text: (§4) Heterozygote coloboma mice were originally purchased from The Jackson Laboratory (Bar Harbor, Me.) and were bred and maintained in our colony. In the current study, 20 mutant mice and 25 wild-type littermates, all aged 8 to 10 weeks, were used. Animals were divided into 4 groups: mutant/drug-treatment (n=11), mutant/vehicle-control (n=9), wild-type/drug-treatment (n=13), wild-type/vehicle-control (n=12). Age and gender were balanced among groups. All animals were housed as littermates (2-4 mice per cage) and were maintained on ad libitum food and water with a 12 hr light/dark cycle.
(§5) Open-field testing was performed under normal lighting conditions. Mice were brought into the experimental room and allowed at least 1 hr of acclimatization. Thirty minutes prior to testing, animals received an ip. injection of either d-amphetamine (4 mg/kg), eltoprazine (0.5 mg/kg) or saline. The mice were then placed in the activity monitor arenas (27×27×20 cm, Med Associates). Four animals of matching genotype and treatment were tested at one time. Each testing session lasted 40 minutes, after which animals were returned to their home cages. An automated infrared beam array system measured locomotor activity (total distance traveled) and number of center entries (zone crossings).

wild-type mice [4] = assay: Open-field locomotor activity, wild-type littermates; assay type: in vivo
From the text: as §4, §5

C57BL/6J mice = assay: Peak procedure (30 second reinforcement interval), C57BL/6J mice; assay type: in vivo
Protocol: as §2
In the peak procedure, mice are trained to work for food that is delivered at the same time in each trial, but withdrawn in some unreinforced trials. Typically, the response rate increases up to a maximum around the reinforcement time, and then decreases to a low toward the end of the trial. […] Accuracy is measured by looking at the shape of the response function; therefore, if the response function is sharper and centered on the reinforcement time it supports a conclusion that attentional processes have been heightened.
as §3

wild-type mice [5] = assay: DRL-36s schedule after FR5 conditioning, wild-type mice; assay type: in vivo
Protocol: (§6) Experiments were conducted in eight identical mouse operant chambers (16×14×13 cm) with stainless steel grid floors (ENV-307M; Med Associates Inc., Georgia, Vt., USA) housed in sound-insulating and ventilated cubicles. Each chamber was equipped with two ultra-sensitive retractable levers, one on each side of a food cup containing photocells to register nose poke behavior and in which a pellet dispenser delivered 20 mg food pellets (Formula A/I, P.J. Noyes Company Inc., Lancaster, N.H., USA). A red house light (50 lux) was located in the center of the wall opposite to the food cup and levers. Stimulus lights were located above each lever and above the food cup. Experimental sessions were controlled and data were recorded by a computer.
(§7) Mice trained on DRL procedure first received operant conditioning. DRL-36s task was adapted from procedures used in rats (O'Donnell and Seiden, supra). Briefly, mice first learned to respond for food under a DRL 6 sec schedule, which means that mice had to wait at least 6 seconds between successive lever presses in order to obtain a food reward. Subsequently the schedule requirement was increased every session in steps of 6 sec to 36 sec (DRL 36 sec). Each session started with the illumination of the house light, the stimulus light above the food cup and the presentation of the left lever for the duration of the session. […] If the mouse presses too soon, no reinforcement is given, the clock is reset to zero, and a new 36-sec waiting period starts. In this way, the DRL-36s schedule task primarily measures waiting strategies which reflect hyperactivity-impulsivity behaviors associated with ADHD. Animals were trained until performances on the DRL 36 sec schedule had stabilized (approximately 25 sessions). All training sessions lasted 60 min and were conducted 5 days per week from Monday-Friday. The total number of lever presses (responses), the total number of reinforcements, and the inter-response times (IRT) are recorded.
Data were analyzed as described elsewhere (Richards et al., J. Exp. Anal. Behav. 60:361-385, 1993; Sabol et al., Psychopharmacology 121:57-65, 1995). The inter-response time (IRT) analysis included three measures for the characterization of DRL 36 sec IRT distributions: peak area, peak location and burst ratio. Only peak area (PkA) and peak location (PkL) are presented. The PkA measure is the area of the obtained IRT distribution of a mouse above the corresponding negative exponential, a computation based on mean of obtained IRT durations excluding the burst component of IRT<3 sec (see Richards et al., supra, for details). […] Thus, decreases in PkA indicate that the mouse's IRT distribution becomes more similar to random performance indicating loss of schedule control. PkL is calculated as the median of the area of the obtained IRT distribution above the corresponding negative exponential.
Mice were conditioned and challenged on a DRL-36s schedule according to the methods of Example 7, with the following modifications. Because 1BKO mice had difficulty learning the DRL-36s schedule following conditioning on an FR1, wild-type and 1BKO mice were conditioned on a fixed rate 5 (FR5) schedule. In FR5, instead of pressing the lever once for a reward, animals have to press 5 times. The rationale for changing the operant conditioning was that by increasing the number of responses necessary for reinforcement, the wild-type mice should have greater difficulty and the 1BKO (which have higher response rates anyway) should have less difficulty getting reinforcements.

[6] = tested on: 5-HT1B knockout (1BKO) mice; assay: DRL-36s schedule after FR5 conditioning, 5-HT1B knockout mice; assay type: in vivo
Protocol: as §6, §7
Data were analyzed as described elsewhere (Richards et al., J. Exp. Anal. Behav. 60:361-385, 1993; Sabol et al., Psychopharmacology 121:57-65, 1995). The inter-response time (IRT) analysis included three measures for the characterization of DRL 36 sec IRT distributions: peak area, peak location and burst ratio. Only peak area (PkA) and peak location (PkL) are presented. The PkA measure is the area of the obtained IRT distribution of a mouse above the corresponding negative exponential, a computation based on mean of obtained IRT durations excluding the burst component of IRT<3 sec (see Richards et al., supra, for details). […] PkL is calculated as the median of the area of the obtained IRT distribution above the corresponding negative exponential. […]

Cm mutant mice = conditions: Hess et al., 1996; cited from earlier work

Structure (SMILES): O=c1ccc2[nH]cc(C3=CCNCC3)c2[nH]1 [CP 93129, 1,4-Dihydro-3-(1,2,3,6-tetrahydro-4-pyridinyl)-5H-pyrrolo[3,2-b]pyridin-5-one, reference compound]
- 5-HT release ([1]; 0.5 μM): did not decrease 5-HT release
- striatal release of DA ([1]; 0.5 μM): similarly unaffected
- increase in DA levels ([1]; 50 μM, compared to vehicle): 527±67%
- DA release ([2]; 0.5 μM, local administration): unaffected
- time for 5-HT release to return toward basal levels after cessation ([2]; 0.5 μM, local administration): ≤ 40 min
- 5-HT level as compared to vehicle ([2]; 0.5 μM, local administration through probe): 51±9%
- increase in DA levels ([2]; 50 μM, local administration, compared to vehicle): 525±79%

Structure (SMILES): CCCOc1ccc2[nH]cc(C3=CCNCC3)c2n1 [CP 94253, reference compound]
- timing in the peak procedure (C3H mice): no effect on timing in the peak procedure
- distance traveled ([3]; 0.5 mg/kg (FIG. 7)): did not decrease significantly the distance traveled
- locomotor activity (wild-type mice [4]; 0.5 mg/kg (FIG. 7)): no effect on the locomotor activity

Structure (SMILES): C[C@H](N)Cc1ccccc1 [d-amphetamine]
- relative response rate curve in peak trials (C57BL/6J mice; 4 mg/kg, 30 min before session (FIG. 1C)): does not peak as high as the lower dose and the curve is flatter
- relative response rate curve in peak trials (C57BL/6J mice; 1 and 2 mg/kg, 30 min before session, relative to saline (FIGS. 1A, 1B)): higher peak in the curve followed by a rapid decrease
- total distance traveled ([3]; 4 mg/kg i.p., 40 min session, saline 18386±6387 (FIG. 4)): 5966±1938 cm
- response rate (wild-type mice [5]; 2 mg/kg i.p.): significantly increased response rate
- response rate (wild-type mice [5]; 4 mg/kg i.p., wild-type vs 1BKO): significantly decreased response rate in wild-types compared to 1BKO mice
- response rate (wild-type mice [5]; 8 mg/kg i.p.): decreased response rate
- number of reinforcements (wild-type mice [5]; 2 and 8 mg/kg i.p. vs vehicle (FIG. 12A)): significantly decreased the number of reinforcements
- number of reinforcements ([6]; 2, 4 or 8 mg/kg i.p. (FIG. 12A)): no significant effect on number of reinforcements
- response rate ([6]; 2, 4 or 8 mg/kg i.p. (FIG. 12B)): not statistically significant at any dose
- total distance traveled (wild-type mice [4]; 4 mg/kg i.p., 40 min session, saline 3116±338 (FIG. 4)): 11657±2370 cm
- hyperactivity / locomotor activity in Cm mutant mice (Cm mutant mice): normalizes the hyperactivity

Structure (SMILES): COC(=O)C(c1ccccc1)C1CCCCN1 (stereo not shown) [methylphenidate]
- hyperactivity / locomotor activity in Cm mutant mice (Cm mutant mice): increases locomotor activity in a dose-dependent manner
